# From ChEMBL document CHEMBL5154877, “Novel Sphingosine Kinase 1 Inhibitor Suppresses Growth of Solid Tumor and Inhibits the Lung Metastasis of Triple-Negative Breast Cancer” (J Med Chem, 2022)
# Experiments:
# Sphingosine kinase 2 = molecular target: T1, Sphingosine kinase 2 (Homo sapiens, UniProt Q9NRA0)
# T1 sequence (Q9NRA0 whole entry): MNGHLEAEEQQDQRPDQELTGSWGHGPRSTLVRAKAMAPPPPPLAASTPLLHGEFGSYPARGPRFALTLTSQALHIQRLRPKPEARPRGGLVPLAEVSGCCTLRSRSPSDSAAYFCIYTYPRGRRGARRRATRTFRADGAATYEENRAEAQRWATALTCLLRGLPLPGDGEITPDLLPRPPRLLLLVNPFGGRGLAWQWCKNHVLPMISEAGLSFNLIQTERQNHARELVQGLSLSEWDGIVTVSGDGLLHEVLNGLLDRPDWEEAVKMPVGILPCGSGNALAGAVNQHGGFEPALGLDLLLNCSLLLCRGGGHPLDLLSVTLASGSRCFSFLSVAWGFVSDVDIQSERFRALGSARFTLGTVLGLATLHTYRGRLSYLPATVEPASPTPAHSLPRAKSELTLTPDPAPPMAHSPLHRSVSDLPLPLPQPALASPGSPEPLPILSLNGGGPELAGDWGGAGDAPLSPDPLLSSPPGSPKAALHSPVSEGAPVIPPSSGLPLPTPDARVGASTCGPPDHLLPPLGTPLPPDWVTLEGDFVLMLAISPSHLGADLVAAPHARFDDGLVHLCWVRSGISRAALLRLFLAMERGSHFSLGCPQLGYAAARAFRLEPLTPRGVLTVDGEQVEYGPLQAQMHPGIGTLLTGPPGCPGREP
# [1] = Half life in mouse at 2 mg/kg, iv; format: ADME, organism-based; settings: in vivo
# [2] = AUClast in mouse at 20 mg/kg, po; format: ADME, organism-based; parameters: time 0 - last, dose 20 mg/kg, route po; settings: in vivo
# [3] = Half life in mouse at 20 mg/kg, po; format: ADME, organism-based; settings: in vivo
# [4] = Tmax in mouse at 20 mg/kg, po; format: ADME, organism-based; settings: in vivo
# [5] = AUClast in mouse at 2 mg/kg, iv; format: ADME, organism-based; parameters: time 0 - last, dose 2 mg/kg, route iv; settings: in vivo
# [6] = Oral bioavailability in mouse at 20 mg/kg; format: ADME, organism-based; settings: in vivo
# [7] = Clearance in mouse at 2 mg/kg, iv; format: ADME, organism-based; settings: in vivo
# [8] = Cmax in mouse at 20 mg/kg, po; format: ADME, organism-based; parameters: dose 20 mg/kg, route po; settings: in vivo
structure (smiles),measurement,setting,value
Cc1cc(CS(=O)(=O)c2ccccc2)cc(OCc2ccc(CN(C)CCO)cc2)c1,IC50,Sphingosine kinase 2,> 10 µM
Cc1cc(CS(=O)(=O)c2ccc([N+](=O)[O-])cc2)cc(OCc2ccc(CN3CCC[C@@H]3CO)cc2)c1,IC50,Sphingosine kinase 2,> 10 µM
Cc1cc(CS(=O)(=O)C2CC2)cc(OCc2ccc(CN3CCC[C@@H]3CO)cc2)c1,half-life,[1],1.79 h
same,AUC(0-t),[2],100 ng·h/mL
same,half-life,[3],1.79 h
same,Tmax,[4],0.25 h
same,AUC(0-t),[5],201 ng·h/mL
same,bioavailability,[6],4.95%
same,clearance,[7],164 mL/min/kg
same,IC50,Sphingosine kinase 2,> 10 µM
same,Cmax,[8],83.6 ng/mL
Cc1cc(CS(=O)(=O)c2ccccc2)cc(OCCCCCCCN2CCC[C@@H]2CO)c1,IC50,Sphingosine kinase 2,> 10 µM
